Assay results reported in US6737383B1, “Herbicidal oxadiazolidines” (priority 1999, dated 2004).

What was measured:
[1] = tested on: soybean; assay: Test B pre/postemergence soybean; format: in vivo, Glycine max
In short: (§1)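 Response is a visual 0-to-10 score relative to untreated plants, where 0 means no effect and 10 means complete control, taken twelve to sixteen days after application. Treatments went onto soil at planting and onto foliage of 1- to 4-leaf plants, using a surfactant-containing non-phytotoxic solvent.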

[2] = tested on: surinam grass; assay: Test B pre/postemergence surinam grass; format: in vivo, Brachiaria decumbens
In short: as §1

[3] = tested on: blackgrass; assay: Test B pre/postemergence blackgrass; format: in vivo, Alopecurus myosuroides
In short: as §1

[4] = tested on: morningglory; assay: Test B pre/postemergence morningglory; format: in vivo, Ipomoea hederacea
In short: as §1

[5] = tested on: sugar beet; assay: Test B pre/postemergence sugar beet; format: in vivo, Beta vulgaris
In short: as §1

[6] = tested on: crabgrass; assay: Test B pre/postemergence crabgrass; format: in vivo, Digitaria sanguinalis
In short: as §1

[7] = tested on: giant foxtail; assay: Test B pre/postemergence giant foxtail; format: in vivo, Setaria faberii
In short: as §1

[8] = tested on: wild oat; assay: Test B pre/postemergence wild oat; format: in vivo, Avena fatua
In short: as §1

[9] = tested on: cocklebur; assay: Test B pre/postemergence cocklebur; format: in vivo, Xanthium strumarium
In short: as §1

[10] = tested on: rape; assay: Test B pre/postemergence rape; format: in vivo, Brassica napus
In short: as §1

[11] = tested on: purple nutsedge; assay: Test B pre/postemergence purple nutsedge; format: in vivo, Cyperus rotundus
In short: as §1

[12] = tested on: corn; assay: Test B pre/postemergence corn; format: in vivo, Zea mays
In short: as §1

[13] = tested on: velvetleaf; assay: Test B pre/postemergence velvetleaf; format: in vivo, Abutilon theophrasti
In short: as §1

[14] = tested on: bamyardgrass; assay: Test B flood test barnyardgrass; format: in vivo, Echinochloa crus-galli
In short: (§2)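 Each value is a visual injury score relative to controls, with 10 meaning complete control and 0 no effect. Evaluation took place twelve to sixteen days after the 2-leaf-stage plants were treated and kept in the greenhouse.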

[15] = tested on: pigweed; assay: Test B pre/postemergence pigweed; format: in vivo, Amaranthus retroflexus
In short: as §1

[16] = tested on: smallflower flatsedge; assay: Test B flood test smallflower flatsedge; format: in vivo, Cyperus difformis
In short: as §2

[17] = Preemergence, Rate 62 g/ha, scale of 0 to 10 where 0 is no effect and 10 is complete control
[18] = Preemergence, Rate 250 g/ha, scale of 0 to 10 where 0 is no effect and 10 is complete control
[19] = Preemergence, Rate 500 g/ha, scale of 0 to 10 where 0 is no effect and 10 is complete control
[20] = Rate 62 g/ha, Postemergence, scale of 0 to 10 where 0 is no effect and 10 is complete control
[21] = Rate 125 g/ha, Postemergence, scale 0 to 10
[22] = Rate 125 g/ha, Preemergence, scale of 0 to 10 where 0 is no effect and 10 is complete control
[23] = Rate 500 g/ha, Postemergence, scale 0 to 10, 0 no effect, 10 complete control
[24] = Rate 62 g/ha, headed Pre-emergence (flood test species), scale 0 to 10 (0 no effect, 10 complete control)
[25] = Rate 125 g/ha, Pre-emergence, flood test species, scale 0 to 10 where 0 is no effect and 10 is complete control
[26] = Rate 250 g/ha, Pre-emergence, flood-test species, scale 0 to 10, 0 is no effect, 10 is complete control
[27] = Rate 500 g/ha, Pre-emergence, flood test species, scale 0 to 10 (0 no effect, 10 complete control)

## CC(C)N(C(=O)n1oc(=O)n(-c2cccnc2)c1=O)c1ccc(F)cc1 [Compound 234]
[1]; [17]
  Soybean plant response rating: 0
[1]; [18]
  Soybean plant response rating: 0
[1]; [19]
  Plant response rating, Soybean: 0
[1]; [20]
  Soybean plant response rating: 0
[1]; [21]
  Soybean plant response rating: 0
[1]; [22]
  Soybean plant response rating: 0
[1]; Rate 250 g/ha, Postemergence
  Plant response rating (0 to 10; 0 is no effect, 10 is complete control), Soybean: 0
[1]; [23]
  Soybean plant response rating: 1
[2]; [17]
  B. signalgrass plant response rating: 0
[2]; Preemergence, Rate 250 g/ha, scale 0 to 10, 0 is no effect, 10 is complete control
  B. signalgrass plant response rating: 0
[2]; [19]
  Plant response rating, B. signalgrass: 0
[2]; [20]
  B. signalgrass plant response rating: 0
[2]; Rate 125 g/ha, Postemergence, scale 0 (no effect) to 10 (complete control)
  B. signalgrass plant response rating: 0
[2]; [22]
  B. signalgrass plant response rating: 0
[2]; Rate 250 g/ha, Postemergence
  Plant response rating (0 to 10; 0 is no effect, 10 is complete control), B. signalgrass: 0
[2]; [23]
  B. signalgrass plant response rating: 0
[3]; [17]
  Blackgrass plant response rating: 0
[3]; [18]
  Blackgrass plant response rating: 0
[3]; [19]
  Plant response rating, Blackgrass: 0
[3]; [20]
  Blackgrass plant response rating: 0
[3]; [21]
  Blackgrass plant response rating: 0
[3]; [22]
  Blackgrass plant response rating: 0
[3]; Rate 250 g/ha, Postemergence
  Plant response rating (0 to 10; 0 is no effect, 10 is complete control), Blackgrass: 0
[3]; [23]
  Blackgrass plant response rating: 0
[4]; [17]
  Morningglory plant response rating: 0
[4]; [18]
  Morningglory plant response rating: 0
[4]; [19]
  Plant response rating, Morningglory: 0
[4]; [20]
  Morningglory plant response rating: 0
[4]; [21]
  Morningglory plant response rating: 0
[4]; [22]
  Morningglory plant response rating: 0
[4]; Rate 250 g/ha, Postemergence
  Plant response rating (0 to 10; 0 is no effect, 10 is complete control), Morningglory: 1
[4]; [23]
  Morningglory plant response rating: 2
[5]; [17]
  Sugarbeets plant response rating: 0
[5]; [18]
  Sugarbeets plant response rating: 0
[5]; [19]
  Plant response rating, Sugarbeets: 0
[5]; [20]
  Sugarbeets plant response rating: 0
[5]; [21]
  Sugarbeets plant response rating: 0
[5]; [22]
  Sugarbeets plant response rating: 0
[5]; Rate 250 g/ha, Postemergence
  Plant response rating (0 to 10; 0 is no effect, 10 is complete control), Sugarbeets: 0
[5]; [23]
  Sugarbeets plant response rating: 0
[6]; [17]
  Crabgrass plant response rating: 0
[6]; [18]
  Crabgrass plant response rating: 0
[6]; [19]
  Plant response rating, Crabgrass: 0
[6]; [20]
  Crabgrass plant response rating: 0
[6]; [21]
  Crabgrass plant response rating: 0
[6]; [22]
  Crabgrass plant response rating: 0
[6]; Rate 250 g/ha, Postemergence
  Plant response rating (0 to 10; 0 is no effect, 10 is complete control), Crabgrass: 0
[6]; [23]
  Crabgrass plant response rating: 0
[7]; [17]
  Giant foxtail plant response rating: 0
[7]; [18]
  Giant foxtail plant response rating: 0
[7]; [19]
  Plant response rating, Giant foxtail: 0
[7]; [20]
  Giant foxtail plant response rating: 0
[7]; [21]
  Giant foxtail plant response rating: 0
[7]; [22]
  Giant foxtail plant response rating: 0
[7]; Rate 250 g/ha, Postemergence
  Plant response rating (0 to 10; 0 is no effect, 10 is complete control), Giant foxtail: 0
[7]; [23]
  Giant foxtail plant response rating: 0
[8]; [17]
  Wild oats plant response rating: 0
[8]; [18]
  Wild oats plant response rating: 0
[8]; [19]
  Plant response rating, Wild oats: 0
[8]; [20]
  Wild oats plant response rating: 0
[8]; [21]
  Wild oats plant response rating: 0
[8]; [22]
  Wild oats plant response rating: 0
[8]; Rate 250 g/ha, Postemergence
  Plant response rating (0 to 10; 0 is no effect, 10 is complete control), Wild oats: 0
[8]; [23]
  Wild oats plant response rating: 0
[9]; [17]
  Cocklebur plant response rating: 0
[9]; [18]
  Cocklebur plant response rating: 0
[9]; [19]
  Plant response rating, Cocklebur: 0
[9]; [20]
  Cocklebur plant response rating: 0
[9]; [21]
  Cocklebur plant response rating: 0
[9]; [22]
  Cocklebur plant response rating: 0
[9]; Rate 250 g/ha, Postemergence
  Plant response rating (0 to 10; 0 is no effect, 10 is complete control), Cocklebur: 0
[9]; [23]
  Cocklebur plant response rating: 3
[10]; [17]
  Rape plant response rating: 0
[10]; [18]
  Rape plant response rating: 0
[10]; [19]
  Plant response rating, Rape: 0
[10]; [20]
  Rape plant response rating: 0
[10]; [21]
  Rape plant response rating: 0
[10]; [22]
  Rape plant response rating: 0
[10]; Rate 250 g/ha, Postemergence
  Plant response rating (0 to 10; 0 is no effect, 10 is complete control), Rape: 0
[10]; [23]
  Rape plant response rating: 0
[11]; [19]
  Plant response rating, Nutsedge: 0
[11]; [20]
  Nutsedge plant response rating: 0
[11]; [21]
  Nutsedge plant response rating: 0
[11]; Rate 250 g/ha, Postemergence
  Plant response rating (0 to 10; 0 is no effect, 10 is complete control), Nutsedge: 0
[11]; [23]
  Nutsedge plant response rating: 0
[12]; [17]
  Corn plant response rating: 0
[12]; [18]
  Corn plant response rating: 0
[12]; [19]
  Plant response rating, Corn: 0
[12]; [20]
  Corn plant response rating: 0
[12]; [21]
  Corn plant response rating: 0
[12]; [22]
  Corn plant response rating: 0
[12]; Rate 250 g/ha, Postemergence
  Plant response rating (0 to 10; 0 is no effect, 10 is complete control), Corn: 0
[12]; [23]
  Corn plant response rating: 0
[13]; [17]
  Velvetleaf plant response rating: 0
[13]; [18]
  Velvetleaf plant response rating: 0
[13]; [19]
  Plant response rating, Velvetleaf: 0
[13]; [20]
  Velvetleaf plant response rating: 0
[13]; [21]
  Velvetleaf plant response rating: 0
[13]; [22]
  Velvetleaf plant response rating: 0
[13]; Rate 250 g/ha, Postemergence
  Plant response rating (0 to 10; 0 is no effect, 10 is complete control), Velvetleaf: 0
[13]; [23]
  Velvetleaf plant response rating: 0
[14]; [24]
  Barnyardgrass plant response rating: 0
[14]; [25]
  Barnyardgrass plant response rating: 0
[14]; [26]
  Barnyardgrass plant response rating: 0
[14]; [27]
  Barnyardgrass plant response rating: 0
[15]; [17]
  Redroot pigweed plant response rating: 0
[15]; [18]
  Redroot pigweed plant response rating: 0
[15]; [19]
  Plant response rating, Redroot pigweed: 0
[15]; [20]
  Redroot pigweed plant response rating: 0
[15]; [21]
  Redroot pigweed plant response rating: 0
[15]; [22]
  Redroot pigweed plant response rating: 0
[15]; Rate 250 g/ha, Postemergence
  Plant response rating (0 to 10; 0 is no effect, 10 is complete control), Redroot pigweed: 0
[15]; [23]
  Redroot pigweed plant response rating: 0
[16]; [24]
  S. Flatsedge plant response rating: 0
[16]; [25]
  S. Flatsedge plant response rating: 0
[16]; [26]
  S. Flatsedge plant response rating: 0
[16]; [27]
  S. Flatsedge plant response rating: 0
